One may read the melting point as the temperature of the solid-liquid transition.

In series [1] the test system is WRL-68 human liver cell line. Briefly: Protecting effect against hydrogen peroxide induced cell death in WRL-68 cells (MTT cell survival). Type of series: cell-based. To be noted: 3 hours; for IC50: read-out: IC50: concentration where the hydrogen peroxide induced cell death was inhibited by 50%; for Emax: read-out: Maximum protection. On the procedure:
The protecting effect of 4-quinazolinone derivatives against cell death caused by hydrogen peroxide in WRL-68 human liver cell line.
The human WRL-68 cell line was obtained from American Type Culture Collection (Rockville, Md.). The one layer thick cell lines were cultured in Dulbecco's modified. Eagle medium containing 1% antibiotic-antimycotic solution and 10% fetal calf serum under humid 37° C. air containing 5% CO2. The cells were separated every three days.
The cells were transformed to a 96-well plate with 2.5×10^4 cells/well initial concentration and were cultured overnight in humid 37° C. air containing 5% CO2. The following day 0.3 mM hydrogen peroxide was added to the medium either by itself or in the presence of one of the protecting agents. Three hours later the medium was removed and 0.5% water-soluble mitochondria stain, 3-(4,5-dimethylthiazol-2-yl)-2;5-diphenyl-tetrazolium bromide (MTT^+) was added to the cells. […] The optical density was determined at 550 nm by Anthos Labtech 2010 ELISA Reader (Wien, Austria). In every experiment at least 6 parallel samples were treated and the experiments were repeated three times. Table 1 presents the concentrations (given in μM) where the hydrogen peroxide induced cell death was inhibited by 50%.

In series [2] the target is T1, poly(ADP-ribose) polymerase enzyme isolated from rat liver (Rattus norvegicus, UniProt P27008).
T1 construct: The poly(ADP-ribose) polymerase enzyme was isolated from rat liver as described earlier; from tissue; host or cells: rat liver
T1 sequence (P27008 whole entry): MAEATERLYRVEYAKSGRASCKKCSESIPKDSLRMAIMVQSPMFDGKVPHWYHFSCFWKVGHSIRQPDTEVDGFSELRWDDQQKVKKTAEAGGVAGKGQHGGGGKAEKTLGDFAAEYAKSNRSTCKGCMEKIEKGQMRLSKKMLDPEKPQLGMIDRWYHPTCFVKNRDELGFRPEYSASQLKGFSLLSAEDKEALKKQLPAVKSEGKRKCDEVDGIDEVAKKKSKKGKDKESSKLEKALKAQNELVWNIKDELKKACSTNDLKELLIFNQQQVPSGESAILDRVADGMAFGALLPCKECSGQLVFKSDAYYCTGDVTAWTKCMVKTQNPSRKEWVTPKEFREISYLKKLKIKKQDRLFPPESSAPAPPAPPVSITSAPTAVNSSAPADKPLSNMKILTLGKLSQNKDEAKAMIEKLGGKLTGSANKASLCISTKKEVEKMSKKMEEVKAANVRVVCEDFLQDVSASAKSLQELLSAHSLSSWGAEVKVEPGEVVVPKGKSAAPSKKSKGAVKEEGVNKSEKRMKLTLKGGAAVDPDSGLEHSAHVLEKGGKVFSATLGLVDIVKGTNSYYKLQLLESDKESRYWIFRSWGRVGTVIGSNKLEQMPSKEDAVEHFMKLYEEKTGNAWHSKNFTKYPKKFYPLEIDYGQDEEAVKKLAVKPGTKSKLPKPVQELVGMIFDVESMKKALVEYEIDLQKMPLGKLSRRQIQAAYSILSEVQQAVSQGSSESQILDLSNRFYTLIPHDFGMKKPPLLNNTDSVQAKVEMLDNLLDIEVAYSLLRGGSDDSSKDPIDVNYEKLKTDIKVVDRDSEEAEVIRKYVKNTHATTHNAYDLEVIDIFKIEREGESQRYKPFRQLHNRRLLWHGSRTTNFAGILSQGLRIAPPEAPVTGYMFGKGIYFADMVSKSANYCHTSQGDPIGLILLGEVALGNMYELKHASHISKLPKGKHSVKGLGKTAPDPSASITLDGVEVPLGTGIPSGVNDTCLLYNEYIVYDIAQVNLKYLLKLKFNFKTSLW
The series is described as follows: In vitro inhibitory effect on PARP enzyme ([3H]-NAD+ incorporation). As to conditions: 1 mM [3H]-NAD+, 15 minutes incubation. Type of series: biochemical. As for the experimental part: The In Vitro Inhibitory Effect of 4-quinazolinone Derivatives on PARP Enzyme
The poly(ADP-ribose) polymerase enzyme was isolated from rat liver as described earlier. The putative inhibitory effect of 4-quinazolinone derivatives was examined in this experiment. The activity of the PARP enzyme was determined in 130 μl solution containing 100 mM Tris-HCl buffer (pH 8.0), 10 mM MgCl2, 10% glycerol, 1.5 mM DTT, 1 mM [Adenin-2,8-^3H]-NAD^+ (4,500 cpm/nmol), 10 μg activated DNA and 10 μg histone. With or without the presence of 4-quinazolinone derivatives, the samples were incubated for 15 minutes, then the reactions were brought to stop by the addition of 8% trichloroacetic acid. After the addition of 0.5 mg albumin the samples were allowed to precipitate for 20 minutes on ice, then the insoluble substances were filtered on a glass filter, collected and washed five times with 5% perchloric acid. The protein-bound radioactivity was measured by LS-200 Beckman scintillation counter, the data is presented in μM in Table 2.

The mark [3] stands for this setting: Homo sapiens, WRL68, 0.3 mM hydrogen peroxide.

Each structure is given as a SMILES string. Where two headings read alike, the source gives them in different places.

`CC1(C)C=C(c2nc3ccccc3c(=O)[nH]2)CC(C)(C)N1` [Compound 24, 2-(2,2,6,6-Tetramethyl-1,2,3,6-tetrahydropyridin-4-yl)quinazolin-4(3H)-one]: in series [1] (setting [3]), the IC50 came to 12 µM and the Emax worked out at 50%.
Taken in the same sequence, the figures for `Cc1nc2ccccc2c(=O)[nH]1` [Compound 2, 2-methylquinazolin-4(3H)one, reference compound] were 4 µM and 54%.
Regarding `CC1(C)C=C(c2nc3ccccc3c(=O)[nH]2)C(C)(C)N1O` [Compound 21, 2-(1-Oxyl-2,2,5,5-tetramethyl-2,5-dihydro-1H-pyrrol-3-yl)quinazolin-4(3H)-one], in series [1] (setting [3]), the IC50 was more than 100 µM and the Emax is 0%.
Regarding `O=c1[nH]c(S)nc2ccccc12` [Compound 3, 2-mercaptoquinazolin-4(3H)one, reference compound], in series [1] (setting [3]), the IC50 came out at 70 µM and the Emax was determined as 52%.
For `CC1(C)C=C(CSc2nc3ccccc3c(=O)[nH]2)C(C)(C)N1O` [Compound 12, 2-{[(1-Oxyl-2,2,5,5-tetramethyl-2,5-dihydro-1H-pyrrol-3-yl)methyl]thio}quinazolin-4(3H)-one], the melting point was in the range of 138 to 140 °C.
In the case of `CN(C)CCCSc1nc2ccccc2c(=O)[nH]1` [Compound 17b, 2-{[3(Dimethylamino)propyl]thio}quinazolin-4(3H)-one], the IC50 was 4.8 µM in series [1] (setting [3]) and 6 µM in series [2]. In addition, in series [1] (setting [3]), the Emax was 65%.
`CC1(C)C=C(CSc2nc3ccccc3c(=O)[nH]2)C(C)(C)N1` [Compound 13, 2-{[(2,2,5,5-Tetramethyl-2,5-dihydro-1H-pyrrol-3-yl)methyl]thio}quinazolin-4(3H)-one] had a melting point of 150 to 151 °C.
Take `CC1(C)C=C(c2nc3ccccc3c(=O)[nH]2)C(C)(C)N1` [Compound 22, 2-(2,2,5,5-Tetramethyl-2,5 dihydro-1H-pyrrol-3-yl)quinazolin-4(3H)-one]: the melting point lay in the range of 254 to 256 °C.
As for `O=c1[nH]c(SCCN2CCCCC2)nc2ccccc12` [Compound 17c, 2-[(2-Piperidin-1-ylethyl)thio]quinazolin-4(3H)-one], the IC50 in series [1] (setting [3]) was 0.8 µM; in series [2] it was 2.6 µM. The Emax in series [1] (setting [3]) is 62%.
Take `Cc1nc2ccccc2c(=O)n1CC1=CC(C)(C)N([O])C1(C)C` [Compound 8, 3-[(1-Oxyl-2,2,5,5-tetramethyl-2,5-dihydro-1H-pyrrol-3-yl)methyl]-2-methylqunazolin-4(3H)-one]: in series [1] (0.3 mM hydrogen peroxide), the Maximum protection is given as 0% and the IC50 is more than 100 µM.
Consider `CN(C)CCSc1nc2ccccc2c(=O)[nH]1` [Compound 17a], for which, in series [1] (setting [3]), the IC50 was determined as 0.15 µM and the Emax was found to be 68%. In series [2], this compound came in with an IC50 of 2 µM.
Turning to `Cc1nc2ccccc2c(=O)n1CC1=CC(C)(C)NC1(C)C` [Compound 9, 3-[(2,2,5,5-Tetramethyl-2,5-dihydro-1H-pyrrol-3-yl)methyl]-2-methylquinazolin-4(3H)-one], in series [1] (setting [3]), the IC50 was 10 µM and the Emax worked out at 15%.
The corresponding values for `CC1(C)C=C(CSC2=Nc3ccccc3C(=O)C2)CC(C)(C)N1` [Compound 15, 2-{[(2,2,6,6-Tetramethyl-1,2,3,6-tetrahydropyridin-4-yl)methyl]thio}quinolin-4(3H)-one] are 10 µM and 61%.
The corresponding values for `CC1(C)C=C(c2nc3ccccc3c(=O)[nH]2)CC(C)(C)N1O` [Compound 23, 2-(1-Oxyl-2,2,6,6-tetramethyl-1,2,3,6-tetrahydropyridin-4-yl)quinazolin-4(3H)-one] are 13 µM and 50%.
Regarding `CC1(C)CCCC(C)(C)N1CCSc1nc2ccccc2c(=O)[nH]1` [Compound 17d, 2-{[2-(2,2,6,6-Tetramethylpiperidin-1-yl)ethyl]thio}quinazolin-4(3H)-one], the IC50 is 0.1 µM in series [1] (setting [3]) and 1.6 µM in series [2]. In series [1] (setting [3]), the Emax turned out to be 69.6%.
